Assay results from patent US10722442B2, “Skin brightening composition comprising novel ginsenoside” (AMOREPACIFIC CORPORATION, priority 2018, dated 2020).

What was measured:
[1] = target: Mushroom-derived tyrosinase; assay: Inhibitory effect of tyrosinase activity; type: biochemical; conditions: L-tyrosine substrate, 20 minutes at 37° C., absorbance at 490 nm
Protocol: In order to compare the skin brightening effects of ginsenosides isolated from the ginseng seed extract, the inhibitory effect of the tyrosinase activity was evaluated as follows. Mushroom-derived tyrosinase and tyrosine were obtained from Sigma Chemical. […] Tyrosinase activity was assessed by measuring the absorbance at 490 nm using a microplate reader (Bio-Rad 3550, Richmond, Calif., U.S.A.) after an enzyme reaction for 20 minutes at 37° C.

Mel-Ab cell line = assay: Melanin production inhibition (Dooley's method); type: cell-based, C57BL/6; conditions: Mel-Ab cells, after 5 days, absorbance at 400 nm

| SMILES | IC50 (ppm), inhibitory effect of tyrosinase activity [1] [ppm] | IC50 (ppm), concentration required to reduce melanin production in melanocytes by half (Mel-Ab cell line) [ppm] |
| --- | --- | --- |
| CC(C)=CCC[C@](C)(O[C@@H]1O[C@H](CO)[C@@H](O)[C@H](O)[C@H]1O)[C@H]1CC[C@]2(C)[C@@H]1[C@H](O)C[C@@H]1[C@@]3(C)CC[C@H](O[C@@H]4O[C@H](CO)[C@@H](O)[C@H](O)[C@H]4O[C@@H]4O[C@H](CO)[C@@H](O)[C@H](O)[C@H]4O)C(C)(C)[C@@H]3CC[C@]12C [GS#04, ginsenoside Rd] | 31 | 38 |
| OC[C@H]1O[C@@H](Oc2ccc(O)cc2)[C@H](O)[C@@H](O)[C@@H]1O [Arbutin, arbutin] | 149 |  |
| CC(C)=CCC[C@](C)(O[C@@H]1O[C@H](CO)[C@@H](O)[C@H](O)[C@H]1O)[C@H]1CC[C@]2(C)[C@@H]1[C@H](O)C[C@@H]1[C@@]3(C)CC[C@H](O)C(C)(C)[C@@H]3[C@@H](O[C@@H]3O[C@H](CO)[C@@H](O)[C@H](O)[C@H]3O)C[C@]12C [GS#01, ginsenoside Rg1] | 23 | 37 |
| CC(C)=CCC[C@](C)(O[C@@H]1O[C@H](CO[C@@H]2O[C@H](CO)[C@@H](O)[C@H](O)[C@H]2O)[C@@H](O)[C@H](O)[C@H]1O)[C@H]1CC[C@]2(C)[C@@H]1[C@H](O)C[C@@H]1[C@@]3(C)CC[C@H](O[C@@H]4O[C@H](CO)[C@@H](O)[C@H](O)[C@H]4O[C@@H]4O[C@H](CO)[C@@H](O)[C@H](O)[C@H]4O)C(C)(C)[C@@H]3CC[C@]12C [GS#05, ginsenoside Rb1] | 47 | 57 |
| O=c1cc(CO)occ1O [Kojic acid, kojic acid] |  | 39 |
| CC(C)=CCC[C@](C)(O[C@@H]1O[C@H](CO)[C@@H](O)[C@H](O)[C@H]1O)[C@H]1CC[C@]2(C)[C@@H]1[C@H](O)C[C@@H]1[C@@]3(C)CC[C@H](O)C(C)(C)[C@@H]3[C@@H](O[C@@H]3O[C@H](CO)[C@@H](O)[C@H](O)[C@H]3O[C@@H]3O[C@@H](C)[C@H](O)[C@@H](O)[C@H]3O)C[C@]12C [GS#03, ginsenoside Re] | 27 | 39 |
| CC(C)=CCC[C@](C)(O[C@@H]1O[C@H](CO[C@@H]2OC[C@H](O)[C@H](O)[C@H]2O)[C@@H](O)[C@H](O)[C@H]1O)[C@H]1CC[C@]2(C)[C@@H]1[C@H](O)C[C@@H]1[C@@]3(C)CC[C@H](O[C@@H]4O[C@H](CO)[C@@H](O)[C@H](O)[C@H]4O[C@@H]4O[C@H](CO)[C@@H](O)[C@H](O)[C@H]4O)C(C)(C)[C@@H]3CC[C@]12C [GS#06, ginsenoside Rb2] | 53 | 54 |
| CC(C)=CCC[C@](C)(O)[C@H]1CC[C@]2(C)[C@@H]1[C@H](O)C[C@@H]1[C@@]3(C)CC[C@H](O)C(C)(C)[C@@H]3[C@@H](O[C@@H]3O[C@H](CO)[C@@H](O)[C@H](O)[C@H]3O[C@@H]3O[C@@H](C)[C@H](O)[C@@H](O)[C@H]3O)C[C@]12C [GS#02, ginsenoside Rg2] | 30 | 35 |
